Where a name gives a salt, the structure may show the parent alone. Read-outs that look alike come from different tables or passages of the source.
Key:
Listeria monocytogenes = test: MIC determination (Table 6); type: cell-based
Yersinia pestis = test: microbe, parasite or virus in culture; type: cell-based; conditions: read-out: MIC Y.p.
[1] = tested on: Pseudomonas aeruginosa (PA01); test: MIC determination, microbroth dilution; type: cell-based
[2] = tested on: acinetobacter baumannii (ATCC 19606); test: MIC determination, microbroth dilution; type: cell-based; conditions: ATCC19606
E. coli K12 ΔtolC = test: microbe, parasite or virus in culture; type: cell-based; conditions: Escherichia coli, read-out: MIC E.c. Δtolc
[3] = tested on: M. tuberculosis clinical isolates; test: microbe, parasite or virus in culture; type: cell-based; conditions: Mycobacterium tuberculosis, H37RV, read-out: MIC H37Rv
[4] = tested on: Escherichia coli (ATCC 700926); test: MIC determination, microbroth dilution; type: cell-based; conditions: ATCC700926; Escherichia coli (ATCC 700926); read-out: MIC E.c.
[5] = tested on: Enterococcus faecalis (ATCC 33186); test: MIC determination, microbroth dilution; type: cell-based; conditions: ATCC33186; Enterococcus faecalis (ATCC 33186); read-out: MIC E.f.
[6] = tested on: Streptococcus pneumoniae (R6); test: MIC determination, microbroth dilution; type: cell-based
[7] = tested on: Legionella pneumophila (ATCC 33153); test: microbe, parasite or virus in culture; type: cell-based; conditions: ATCC33153, 72 h, read-out: Zone of inhibition L.p.
[8] = tested on: Neisseria gonorrhoeae (ATCC 49226); test: Agar MIC determination (Alamar Blue); type: cell-based; conditions: ATCC49226, agar MIC, read-out: MIC N.g.
[9] = tested on: Stenotrophomonas maltophilia (ATCC 13637); test: MIC determination, microbroth dilution; type: cell-based; conditions: ATCC13637; Stenotrophomonas maltophilia (ATCC 13637); read-out: MIC S.m.
Moraxella catarrhalis = test: MIC determination (Table 6); type: cell-based
[10] = tested on: Haemophilus influenza (ATCC 49247); test: microbe, parasite or virus in culture; type: cell-based; conditions: ATCC49247; Haemophilus influenza; 4 μg per disc; range of at least two experiments; read-out: Zone of inhibition H.i.
Bacillus anthracis = test: microbe, parasite or virus in culture; type: cell-based; conditions: read-out: MIC B.a.
[11] = tested on: Burkholderia cepacia (ATCC 25416); test: MIC determination, microbroth dilution; type: cell-based; conditions: Burkholderia cepacia
[12] = tested on: Proteus mirabilis (ATCC 25933); test: MIC determination, microbroth dilution; type: cell-based; conditions: ATCC25933
[13] = tested on: Neisseria meningitides (ATCC 13077); test: Disc diffusion assay; type: cell-based; conditions: ATCC13077, 4 μg per disc, read-out: Zone of inhibition N.m.
S. pneumoniae D39x = test: Mouse challenge, mouse model of lung infection; type: in vivo; conditions: p<0.02
Description: Mice were treated with a 5 mg/kg dose b.i.d. of spectinomycin (indicated as “SPC” in the figure) or compound 2 (the compound number refers to the compound number and associated structure shown in Table 1), or vehicle. (Panel B) The bacterial burden of mice at 18 hours post-challenge with S. pneumoniae D39x. (Panel C) Representative bioluminescent images of mice at 72 hours post challenge.
All experimental animal protocols were approved by the St. Jude Children's Research Hospital Institutional Animal Care and Use Committee. Seven week old, female BalbC/J mice (Jackson Labs, Bar Harbor, Me.) we utilized in these studies. All mice were maintained in BSL2 facilities and all experiments were done under inhaled isoflurane (2.5%). Bacteria (strain D39x) were introduced by intranasal administration of 2×10^7 CFU in 25 μL PBS. Mice received no treatment, plasmalyte A (vehicle control), ampicillin (100 mg/kg), spectinomycin (50, 25, 5 mg/kg) or the respective compounds (50, 25, 5 mg/kg) at dosages indicated. Antibiotics were administered in a volume of 100 μL by subcutaneous […] starting at 18 hours post challenge, a time point when the mice have developed pneumonia and bacteria have translocated into the bloodstream. Mice were subsequently dosed every 12 hours until 96 hours post challenge. Mice were monitored daily for signs of infection and weight loss. Differences in time to death were compared via Kaplan-Meier survival estimates. Bacterial density in blood was quantified at 24, 48, 72, and 96 hours post infection via blood collection, serial dilution, and plating. Groups were then compared by Mann-Whitney to determine statistical significance. At 8 days following challenge, surviving mice were euthanized and bacterial loads in lungs determined by homogenization followed by serial dilution and plating. In all instances, surviving mice had completely cleared bacteria from both the lungs and the bloodstream by this time point.
Compound 2 was tested for anti-pneumococcal activity in mice as described above. […]

[14] = tested on: MRSA, Staphylococcus aureus (NRS70); test: MIC determination, microbroth dilution; type: cell-based; conditions: Staphylococcus aureus (NRS70); read-out: MIC MRSA

With `CN[C@@H]1[C@H](O)[C@H](NC)[C@H]2O[C@]3(O)[C@H](O[C@@H]2[C@H]1O)O[C@H](C)C[C@@]3(O)CNCc1ccc(F)cc1` [compound 2, 3′-(R)-3′-[(4-fluoro)benzylaminomethyl)]dihydrospectinomycin Trihydrochloride] the MIC (Listeria monocytogenes) was 6.3 µg/mL, the MIC (Yersinia pestis) was 100 µg/mL and the MIC [1] was 100 to 200 µg/mL. The MIC [2] was greater than 200 µg/mL, the MIC (E. coli K12 ΔtolC) was 6.3 µg/mL and the MIC [3] was 25 µg/mL. For the same compound, the MIC [4] was 25 µg/mL, the MIC [5] was 12.5 to 25 µg/mL and the MIC ([6]; Streptococcus pneumoniae (R6), read-out: MIC S. pn.) was 1.6 to 3.1 µg/mL. The MIC ([6]; Streptococcus pneumoniae, S. pneumoniae R6, Drug Susceptible, read-out: MIC R6) was 3.1 µg/mL, the zone of inhibition at 4 µg/disc [7] was 32 to 49 mm and the MIC [8] was 25 µg/mL. It also gave an MIC [9] of 25 µg/mL, an MIC (Moraxella catarrhalis) of 3.1 µg/mL and a zone of inhibition at 4 µg/disc [10] of 17 to 19 mm. The MIC (Bacillus anthracis) was 25 µg/mL, the MIC ([11]; ATCC25416, read-out: MIC B.c., Burkholderia cepacia (ATCC 25416)) was greater than 200 µg/mL and the MIC ([11]; ATCC25416, read-out: MIC B.c., Burkholderia cepacia, Table 6) was greater than 200 µg/mL. The MIC [12] was greater than 200 µg/mL, the zone of inhibition at 4 µg/disc [13] was 19 to 20 mm and the survival (S. pneumoniae D39x; 5 mg/Kg BID subcutaneous, from 18 hours post intranasal challenge, vs vehicle and spectinomycin) was “significantly improved survival”. For the same compound, the “bacterial burden in the blood” value (S. pneumoniae D39x; 48 hours post-challenge, vs spectinomycin and vehicle) was “reduced significantly” and the MIC [14] was 50 µg/mL.

— US10266544B2, “Aryl substituted aminomethyl spectinomycin analogs as antibacterial agents” (ST. JUDE CHILDREN'S RESEARCH HOSPITAL, INC., priority 2013, dated 2019)
